This note sets out measurements from US10344330B2, “Glatiramer acetate response biomarker mRNA potency assay” (Mylan Inc., priority 2013, dated 2019).

Where “and” joins values, the source holds several entries; their conditions need not be identical. Identical values can stand only once. Like-named read-outs stand apart in the source and are kept apart here.

Test [1] concerns IL-5 secreted by LN cells. In words: IL-5 secretion by GA-stimulated LN cells, MSD 9-plex ELISA (Example II). It counts as cell-based, mouse. Particulars: for IL-5 secretion response ratio (treated cell medium to control DCCM1 medium): 21 hr. As to the method:
Animals at 8 weeks of age were immunized by injection into four footpads using a 1 mL syringe with a 27-G, 1⁄2-inch needle. […] Ten days post-immunization, immunized animals were sacrificed via cervical dislocation. […] The LN cells were isolated by pressing the LN with the plunger end of a sterile syringe. […] Trypan blue exclusion method was used to determine the cell density of viable cells in the suspension. […] Cat. […] LN cells were plated into a 24-well tissue culture plate for drug stimulation. […] Cell debris was removed by centrifugation at ca. 200×g for 10 minutes at 4° C. Cytokines secreted by treated cells were determined on the day of collection by ELISA using mouse TH 1/TH 2 9-Plex Tissue Culture Kit (Meso Scale Discovery; Cat No. […]-2, Lot #: K0032839) which detects Th1 cytokines (IFN-γ, IL-2, IL-12, IL-1β, TNF-α, CXCL1) and Th2 cytokines (IL-4, IL-5 and IL-10). For IFN-γ, culture media also were assayed at 45 hours using mouse IFN-γ Tissue Culture Kit (Meso Scale Discovery; Cat No. […] For the positive control, 0.5 mL of LN cells (5×10^6 cells/well) were treated with 0.5 mL of ConA (5 μg/mL). For the negative control, 0.5 mL of LN cells (5×10^6 cells/well) were treated with 0.5 mL of MBP (20 μg/mL). The LN cells with mock stimulation (enriched DCCM1 medium) were used to monitor the background level of a cytokine. For the cytokine assays, calibration standards or samples were incubated in the MULTI-SPOT or the SINGLE-SPOT plate and each cytokine bound to its corresponding capture antibody. All test samples were run in duplicate. The amount of each cytokine on its distinct spot was quantified using a cytokine-specific detection antibody labeled with MSD SULFO-TAGTM reagent. Electrochemiluminescent signals from immobilized SULFO-TAGTM-labeled complexes on each spot from each well were captured by the MSD SECTOR Imager 6000, which produces a signal directly proportional to the amount of captured cytokine in a test sample. The levels of cytokines in test samples were derived by interpolation from calibration curves with calibration standards of known concentrations using reagents provided with the MSD kits. Kits were used according to the manufacturer's protocols. […] Data are expressed as a response ratio of cytokine concentration in treated cell medium to control DCCM1 medium.
In general terms: ELISA stands for enzyme-linked immunosorbent assay.

Test [2] has as its system mouse IL-13 mRNA in primary LN cells. In words: Validation: mouse IL-13 mRNA by real-time PCR in LN cells of GA-immunized SJL/J mice (Example IV). It counts as cell-based. To be noted: for IL-13 mRNA Fold Change: normalized to GAPDH; for induction of IL-13 mRNA: 20 μg/mL, 6 hours. The procedure: Three experiments were conducted using one batch of GA (Mylan GMA). The primary LN cells were stimulated by incubation with 6 concentrations (0.3 to 20 μg/mL) of the GA for 6 hours at 37° C. Total RNA was isolated from LN cells stimulated with GA or controls. cDNA was synthesized from the RNA and the mRNA levels of seven mouse cytokines, IL-2, IL-4, IL-5, IL-10, IL-13, interferon (IFN)-γ and tumor necrosis factor (TNF)-α, were quantitatively measured by a real-time PCR method.
Female SJL/J mice at 8-9 weeks of age were immunized by injection into four footpads using a 1 mL syringe with a 27-G, ½-inch needle. Each mouse received a total injection volume of 0.1 mL of GMA emulsified in CFA (about 10 μL into each of the front footpads and 40 μL into each of the hind footpads). Animals were immunized on Day 0. After injection, animals were placed back in their cages and housed ≤6 animals per cage.
Immunized animals were sacrificed by cervical dislocation on Day 10 following immunization. […] After centrifugation at about 200×g for 10 minutes at 4° C., the cell pellet was re-suspended in 40 mL of DCCM-1 medium for cell counting. A Trypan blue exclusion method was used to determine the cell density of viable cells in the suspension. After cell counting, the LN cells were suspended in enriched DCCM-1 medium at density of 7.5×10^6 cells/mL. LN cells (0.12 mL) were plated into each well of 96-well tissue culture plates.
Dilutions of GA (Mylan GMA) were prepared using enriched DCCM-1 medium as the diluent. GA dilutions (0.12 mL) were added in the assigned wells of 96-well tissue culture plates. The same volume of LN cells (0.12 mL) isolated from immunized animals was added to the assigned wells. A positive control and a negative control were always performed in the same assay by treating LN cells with 2.5 μg/mL ConA and 10 μg/mL MBP, respectively. The LN cells with mock stimulation protocols (enriched DCCM-1 medium) were used to monitor the background mRNA level of a cytokine. The plates were incubated at 37° C. in a humidified 5% CO2 incubator for 6 hr.
At the end of incubation time, culture medium from stimulated cells was removed by aspiration and the cells were lysed using Qiagen or Promega lysis buffer. The lysate was transferred to an RNeasy Mini column (Qiagen) or wells of the SV 96 Binding Plate (Promega) for RNA isolation and cDNA synthesis. All tested samples were run in triplicate.
The SV 96 Total RNA Isolation System (Promega; Cat. No. Z3505) was used for total RNA isolation. Assay procedures were carried out according to each manufacturer's protocol. RNA samples were stored at −70° C. until use. […] The assay procedure was carried out according to the manufacturer's protocol.
The plate was centrifuged at 2000 rpm for 2 minutes at 4° C. to spin down the contents and eliminate air bubbles. Samples were prepared and run in a 96-well plate using a Life Technologies Real-Time PCR system (previously Applied Biosystems; Model No. 7500) according to the manufacturer's recommendation. The mix for the reference gene was prepared in the same way using the reference gene primer.
A relative quantitation method was used to analyze changes in mIL-2, mIL-4, mIL-5, mIL-10, mIL-13, mIFN-γ and TNF-α expression in GA treated samples relative to the untreated control (Enriched DCCM-1 treated) samples using the following program:
Levels of mouse cytokine amplicons were normalized to an internal probe level (GAPDH) from the same samples. The following equations were used to calculate the relative increase in response to GA stimulation compared to the control sample (Enriched DCCM1 sample): […]
(Real-time PCR tracks product formation cycle by cycle.)

Test [3] relates to mIL-10 mRNA in primary LN cells. In words: mIL-10 mRNA by real-time PCR in stimulated LN cells of immunized (SJL/J×BALB/C)F1 mice (Example I). It counts as cell-based, mouse. As to the method:
Animals were immunized on Day 0.
Each mouse received a total injection volume of […] (250 μg GA). Animals were immunized on Day 0. […] Lymph nodes from immunized mice were removed and isolated.
Expression of cytokine mRNA was quantitatively analyzed 4 and 6 hours after using a Real-Time PCR system (7500, Applied Biosystems).

[4] abbreviates: BALB/cByJ, immunized GA Intraplantar.
The mark [5] stands for this setting: BALB/cByJ, immunized GA Lower Limb.
The mark [6] stands for this setting: BALB/cByJ, immunized Mannitol Intraplantar.
Where [7] appears, read: C57BL10J, immunized GA Intraplantar.
The mark [8] stands for this setting: C57BL10J, immunized GA Lower Limb.
[9] abbreviates: C57BL10J, immunized Mannitol Intraplantar.
Setting [10] is: CD-1, immunized GA Intraplantar.
[11] abbreviates: CD-1, immunized Mannitol Intraplantar.
Setting [12] is: Group 1B (GA + CFA), 4 hours post-stimulation, GA 10, MBP 10, ConA 2.5 μg/mL, reference GAPDH.
Where [13] appears, read: Group 1B (GA + CFA), 6 hours post-stimulation, GA 10, MBP 10, ConA 2.5 μg/mL, reference GAPDH.
The mark [14] stands for this setting: Group 2B (Mannitol + CFA), 4 hours post-stimulation, GA 10, MBP 10, ConA 2.5 μg/mL, reference GAPDH.
Setting [15] is: Group 2B (Mannitol + CFA), 6 hours post-stimulation, GA 10, MBP 10, ConA 2.5 μg/mL, reference GAPDH.

On to “Concanavalin A [ConA, reference compound]”, for which the “IL-5 secretion response ratio (treated cell medium to control DCCM1 medium)” value (from here on “IL-5 secretion response ratio”) in test [1] (setting [4]) worked out at 22.09; in test [1] (setting [5]), 14.24; in test [1] (setting [6]), 13.33; in test [1] (setting [7]), 8.16; in test [1] (setting [8]), 5.24; in test [1] (setting [9]), 3.93. In addition, the “IL-5 secretion response ratio” value came out at 13.49 in test [1] (setting [10]); 6.35 in test [1] (CD-1, immunized GA Lower Limb); 7.11 in test [1] (setting [11]). For the same molecule, the “IL-13 mRNA Fold Change” value in test [2] (Experiment 1, 2.5 μg/mL) was found to be 40.9 fold; in test [2] (Experiment 2, 2.5 μg/mL) it was 32.4 fold; in test [2] (Experiment 3, 2.5 μg/mL), 50.9 fold. Besides, the “mIL-10 mRNA” value came out at 2.3 fold change vs control in test [3] (setting [12]), 1.2 fold change vs control in test [3] (setting [13]), 1.6 fold change vs control in test [3] (setting [14]) and 3.1 fold change vs control in test [3] (setting [15]).

For the molecule “L-glutamic acid polymer with L-alanine, L-lysine and L-tyrosine, acetate (salt) [GA]”, in test [1] (BALB/cByJ cells and CD1 cells), the “IL-5 secretion, dose response to GA (in words)” value is “dose-dependent manner”. Further, the “induction of IL-13 mRNA” value was 17.6 fold in test [2] (SJL/J, Exp 1); 21.3 fold in test [2] (SJL/J, Exp 2); 33.9 fold in test [2] (SJL/J, Exp 3). In addition, in test [2] (SJL/J, different concentrations of GA vs unstimulated LN cells), the “induction of IL-13 mRNA (in words)” value is “robust induction”. For the same molecule, the “mIL-10 mRNA” value in test [3] is 1.7 fold change vs control and 1.4 fold change vs control and 1.2 fold change vs control and 0.9 fold change vs control.

B1: MBP: myelin basic protein, a negative control (protein, UniProt P02686 1-304, looked up)
Myelin basic protein: MGNHAGKRELNAEKASTNSETNRGESEKKRNLGELSRTTSEDNEVFGEADANQNNGTSSQDTAVTDSKRTADPKNAWQDAHPADPGSRPHLIRLFSRDAPGREDNTFKDRPSESDELQTIQEDSAATSESLDVMASQKRPSQRHGSKYLATASTMDHARHGFLPRHRDTGILDSIGRFFGGDRGAPKRGSGKDSHHPARTAHYGSLPQKSHGRTQDENPVVHFFKNIVTPRTPPPSQGKGRGLSLSRFSWGAEGQRPGFGYGGRASDYKSAHKGFKGVDAQGTLSKIFKLGGRDSRSGSPMARR
For the molecule B1, the “IL-5 secretion response ratio” value in test [1] (setting [4]) was 1.22; in test [1] (setting [5]), 0.99; in test [1] (setting [6]), 1.07; in test [1] (setting [7]), 1.31; in test [1] (setting [8]) it was 0.85; in test [1] (setting [9]), 0.99. For the same molecule, the “IL-5 secretion response ratio” value in test [1] (setting [10]) is reported as 1.33; in test [1] (CD-1, immunized GA Lower Limb), 1.00; in test [1] (setting [11]), 1.16. Besides, the “IL-13 mRNA Fold Change” value in test [2] (Experiment 1, 10 μg/mL) was 0.9 fold; in test [2] (Experiment 2, 10 μg/mL), 1.4 fold; in test [2] (Experiment 3, 10 μg/mL), 1.2 fold. The “IL-13 mRNA expression level in response to MBP treatment” value in test [2] (SJL/J, MBP 10 μg/mL, all PCR runs) was ≤ 2 fold. Moreover, the “mIL-10 mRNA” value was found to be 1.0 fold change vs control in test [3] (setting [12]), 0.6 fold change vs control in test [3] (setting [13]), 1.0 fold change vs control in test [3] (setting [14]) and 0.5 fold change vs control in test [3] (setting [15]).
